Key:
[1] = tested on: N2 WT C. elegans; assay: Oxygen consumption rate of whole worms, N2; assay type: in vivo; conditions: whole worms over several days; p>0.05
Text: Mitochondria lie at the center of aging biology, playing crucial roles in energy production, carbon substrate metabolism, apoptosis regulation, and redox balance and signaling. Since sirtuins play a major role in regulating mitochondrial function, the present inventors next wanted to investigate whether SA was exerting any of its effects via protection of mitochondrial processes. To investigate SA's effects on mitochondrial respiration, the present inventors administered SA to WT N2 (FIG. 5A) and non-functional SIR-2.1 mutant worms (FIG. 5B) and measured oxygen consumption rate (OCR) in whole worms over several days. […] The present inventors also examined the effect of SA treatment on mitochondrial DNA (mtDNA) integrity.
Oxygen consumption rate for whole C. elegans was measured using a Seahorse Bioscience XF^e96 Analyzer. Worms were harvested from Day 0, 2, and 15 colonies maintained on FUDR containing SA-OP50-seeded NGM plates by washing in M9 medium, followed by floatation on an ice-cold 60% w/v sucrose gradient to segregate clean bacteria-free adult worms from bacterial debris. Worms were seeded at 1,000 worms/well in M9. After 20 min equilibration, a 2-min measurement was performed to obtain basal OCR for all experimental conditions and strains.

[2] = compared with pyridoxamine (PM); cited from earlier work
[3] = in vivo; cited from earlier work
[4] = tested on: mice; conditions: cited from earlier work
[5] = tested on: VC199 non-functional SIR-2.1 mutants; assay: Real-time RT-PCR of ets-7, VC199; assay type: in vivo, C. elegans; conditions: highest dose of SA, Day 15 VC199; p<0.01
Text: First, to validate the microarray results, the present inventors performed real-time RT-PCR on four genes, siah-1, sma-4, F13D12.6, and ets-7 (FIG. 6B). […] Messenger RNA levels for siah-1 and sma-4 were decreased by nearly 25%, as well as F13D12.6 and ets-7 were increased by nearly 25% by SA administration (p<0.05). Pathway Analysis using Gene Ontology (GO) with WEB-based Gene SeT Analysis Toolkit (WEBGESTALT <http://bioinfo.vanderbilt.edu/webgestalt/>) highlighted the metabolic process, lipid metabolic process, proteolysis pathways among many others as being altered favorably by the administration of SA (see Supplemental Data). From the array data confirmed by RT-PCR, the present inventors identified the ETS class transcription factor ETS-7 as a protein of interest. ETS factors are known to be involved in regulating lipid metabolism and regulate lifespan in both Drosophila melanogaster and C. elegans. […] In order to test this, the present inventors carried out real-time RT-PCR quantification of ets-7 in non-functional SIR-2.1 mutant nematodes treated with increasing doses of SA (FIG. 6E).
Total RNA was isolated via the Trizol method, as described previously. […] Quantitative real time PCR (Bio-Rad) was conducted using TaqMan Gene Expression Assay Probes (Life Technologies) for each gene. […]

NCc1ccccc1O [SA, salicylamine]
mitochondrial oxygen consumption rate (OCR) [1]: no effect
lipophilicity [2]: more lipophilic
oral bioavailability [3]: orally bioavailable
tolerability, adverse events ([4]; approximately one year, via drinking water): no evidence of intolerance and no evidence of excess adverse events
tumor formation ([4]; long-term SA treatment): No excess tumor formation
increase in ets-7 mRNA expression [5]: 442%

Source: patent publication US11633370B2, “Use of scavengers of reactive gamma-ketoaldehydes to extend cell lifespan and healthspan” (Vanderbilt University, priority 2016, dated 2023)
